According to patent US11529343B2, “Compositions and methods for identifying and treating dystonia disorders” (DUKE UNIVERSITY, priority 2015, dated 2022):
Entries after “also recorded” stand apart in the source; their conditions may differ. Counter-ions that a name gives are not always drawn.

Assays:
[1] = tested on: Flp-In T-REx 293 cells inducibly expressing delta-E Torsin1a; assay: Cytotoxicity (cell count, cellular morphology) in the Torsin1a assay cell line; format: cell-based, human; conditions: for Cytotox CC-v2 (dose response Curve Class): curve class per Inglese et al. 2006
Experimental: (§1) In order to test this model directly, the delta-E Torsin1a cell line was treated with compounds targeting the eIF2-alpha signaling pathway (FIG. 2). […] The following day, serial drug dilutions were prepared at 2× final concentration in assay media containing 10 μg/mL tetracycline and 30 μL of the drug/tetracycline mixture was added to the appropriate wells, while control wells received 30 μL of assay media alone or assay media+10 μg/mL tetracycline (final tetracycline concentration for all wells except negative controls: 5 μg/mL). Cells were then incubated at 37° C./5% CO^2 for 48 hours and fixed, permeabilized, Hoechst stained, and imaged as described above. The range of the Torsin1a localization effect was normalized to the percentage of cells with puncta in vehicle-treated delta-E cell line as the maximum and that in WT cell line as the minimum (FIG. 2, panels c-h). Cell count and EGFP-Torsin1a expression were normalized to their respective values in the vehicle-treated delta-E cell line as the maximum. All dose response data are the average of 4 independent experiments per dose. Untreated control data used for normalization are the average of 24 independent experiments.
Efficacy is calculated as the magnitude of the pathology correction relative to the mutant Torsin1a pathology. For example an efficacy=−100% would be equivalent to the WT TorsinA phenotype, and 0% would be equivalent to the Mutant TorsinA phenotype. CCv2 refers to the dose response Curve Class annotation, and AC refers to Active Concentration.

[2] = tested on: delta-E Torsin1a localization; assay: Delta-E Torsin1a mislocalization assay (% cells with EGFP puncta, high-content imaging); format: cell-based, human; conditions: for effect on delta-E Torsin1a localization (cells with puncta), in words: dose response; for % pathology CC-v2 (dose response Curve Class): curve class per Inglese et al. 2006
Experimental: To limit variation in expression levels associated with random integration or transient expression, single copies of either WT or delta-E human TOR1A cDNAs with N-terminal EGFP fusions were inserted at the FRT site in Flp-In™ T-Rex™ 293 cells (Thermo Fisher Scientific #R780-07) via flippase recombinase-mediated cassette exchange according to the manufacturer's recommended protocols.
The cells were maintained at 37° C./5% CO2. All experiments were performed on cells with fewer than 5 passages.
Torsin1a expression was also controlled by tetracycline induction to avoid selective pressure modifying the cellular phenotypes. […] The mutant phenotype was measured as the percentage of cells with one or more EGFP puncta using automated high-content imaging analysis (see infra).
The image analysis algorithm was developed using the Cellomics ArrayScan V CompartmentAnalysisV2 protocol. Hoechst's nuclear staining (Ch1: excitation 350 nm; emission 461 nm) was used for focusing and for cell identification by nuclear size, shape, and intensity. […] Detected cells were gated according to nuclear area, length-to-width ratio, and perimeter-to-area ratio. For the purpose of analysis, cell bodies were defined by a radius of 10 μm from the outer edge of the defined nucleus. Overlapping cells were automatically segmented according to the Cellomics ArrayScanV CompartmentAnalysisV2 object segmentation feature. EGFP fluorescence (Ch2: excitation 488 nm; emission 509 nm) was used for puncta detection. […] Torsin a puncta were identified using the spot detection feature of the Compartmental AnalysisV2 protocol. The percentage of cells containing one or more puncta was used as the primary metric in this assay.
as §1

[3] = tested on: homozygous DYT1 knock-in mice; assay: Perinatal survival of DYT1 knock-in mice after in utero exposure; format: in vivo
From the text: Pairs of heterozygous delta-E Torsin1a knock-in breeders (courtesy of Dr. W. Dauer, University of Michigan) were randomly assigned to vehicle or salubrinal treatment groups. Starting 10 days after breeding cages were established, each female mouse was given a daily subcutaneous injection of vehicle or salubrinal at approximately 6 p.m. Cages were checked for new pups three times per day: morning (˜8 a.m.), early afternoon (˜2 p.m.), and during injections (˜6 p.m.). In order to minimize stress and the possibility of litter abandonment, mice with newborn pups were not given injections. Newborn pups were identified by marking limbs with a permanent laboratory marker, and tail samples were taken for genotyping at P0. At approximately P0.5, cages were checked again, and the status of each pup was recorded. If pups were first observed at the 8 am check, the 2 pm check was considered P0.5. If pups were first observed at the 2 pm or 6 pm checks, an additional check was performed at approximately midnight, and considered P0.5. Mortality was also tracked the following day, after which time identifying marks were predominately washed off or obscured by fur. Approximately 8 days after birth all remaining pups were sacrificed, and 10 days after birth daily injections resumed for the subsequent litter. All genotyping and, whenever possible, all pup identification and mortality checks were performed blinded to treatment group.
Salubrinal (R&D Systems #2347) stocks were prepared at 26 mM (10× final concentration) in DMSO and stored in single-use aliquots at −80° C. Each day immediately before injections, a single salubrinal aliquot was thawed to room temperature and diluted 1:10 in injection vehicle (final vehicle composition: 1×PBS/10% DMSO/0.1% BSA). Empty injection vehicle was stored at room temperature in single-use aliquots. Mice were given a single subcutaneous injection of 3.3 mg/kg salubrinal (approximately 80 μL for a 30 g mouse) or an equivalent volume of empty injection vehicle. […]

luciferase secretion = assay: C.Luc. Secretion Assay; format: cell-based; conditions: for effect on secretory deficits, in words: orthogonal assays
Experimental: We tested each shRNA for its ability to rescue a previously described defect in luciferase secretion. Chen, P. et al. (2010) Hum. Mol. Genet. 19, 3502-15; Cao, S. et al. (2010) Dis. Model Mech. 3, 386-96; Barrows, N. J., et al., (2010) J. Biomol. Screen. 15, 735-47.) DYT1 patient data were obtained from 4 independent patient-derived lines and WT data (black bar) from 3 normal healthy control lines. Each line was tested in 5 independent experiments that included 4 technical replicates each (with the exception of SCD data from 3 independent experiments).
(Cao, S. et al. (2010) Dis. Model. Mech. 3, 386-96.) Subsequent testing of additional HIV protease inhibitors supported the activity of this class of compounds and generated favorable structure-activity relationship (SAR) data from which to design improved compounds (Tables 5 and 6). The results with a subset of compounds were also observed in a Luciferase secretion assay (Tables 5 and 6).

[4] = delta-E Torsin1a assay cell line

For `Cc1c(O)cccc1C(=O)N[C@@H](CSc1ccccc1)[C@H](O)CN1C[C@H]2CCCC[C@H]2C[C@H]1C(=O)NC(C)(C)C` [Viracept], the “Cytotox Efficacy” value [1] was −106.32%, the “Cytotox Max Resp” value [1] was −97.72% and the “Cytotox CC-v2 (dose response Curve Class)” value (shortened to “Cytotox CC-v2”) [1] was −1.1.

With `CC(C)CN(C[C@@H](O)[C@H](Cc1ccccc1)NC(=O)O[C@H]1CCOC1)S(=O)(=O)c1ccc(N)cc1` [Amprenavir] the “Cytotox CC-v2” value [1] was 4 and the “ΔE TorsinA Mislocalization Assay Localization EC50” value [2, 4] was “No Activity”.

In the case of `N=C(N)N/N=C/c1c(Cl)cccc1Cl` [guanabenz], the “effect on delta-E Torsin1a localization (cells with puncta), in words” value (shortened to “effect on delta-E Torsin1a localization”) ([2]; delta-E cell line) was “no effect”.

`Cc1c(O)cccc1C(=O)N[C@@H](CSc1ccccc1)[C@H](O)CN1C[C@H]2CCCC[C@H]2C[C@H]1C(=O)NC(C)(C)C` [Nelfinavir] was tested, and the Emax ([2]; Homo sapiens, delta-E Torsin1a assay cell line, read-out: ΔE TorsinA Mislocalization Assay Localization Max Efficacy) was 80% and the “effect on delta-E Torsin1a localization” value ([2]; delta-E cell line) was “corrected TorsinA localization in a dose-dependent fashion”.

`CC(C)(C)NC(=O)[C@@H]1CN(Cc2cccnc2)CCN1C[C@@H](O)C[C@@H](Cc1ccccc1)C(=O)N[C@H]1c2ccccc2C[C@H]1O` [Indinavir sulfate] was tested, and the “Cytotox Efficacy” value [1] was −80.64%, the “Cytotox Max Resp” value [1] was −67.80% and the “Cytotox CC-v2” value [1] was −3.

For `O=C(/C=C/c1ccccc1)NC(NC(=S)Nc1cccc2cccnc12)C(Cl)(Cl)Cl` (stereo not shown) [Salubrinal], the “steady-state EGFP-Torsin1a levels, in words” value ([2]; delta-E cell line) was “without modifying steady-state EGFP-Torsin1a levels”, the “effect on delta-E Torsin1a localization” value ([2]; delta-E cell line) was “robust dose-dependent normalization” and the “perinatal survival / mortality of delta-E/delta-E pups” value ([3]; 3.3 mg/kg subcutaneous daily to pregnant dams, about embryonic day 10 through delivery, versus vehicle) was “dramatically reduced the mortality; also recorded: improves perinatal survival”. For the same compound, the “mortality of wild-type and heterozygous pups” value ([3]; 3.3 mg/kg subcutaneous daily to pregnant dams, versus vehicle) was “no mortality differences” and the “homozygous delta-E Torsin1a pups surviving through the second postnatal day” value ([3]; no postnatal treatment, no vehicle-treated homozygous pup survived the first postnatal day) was “two”.

For `CS(=O)(=O)O.Cc1c(O)cccc1C(=O)N[C@@H](CSc1ccccc1)[C@H](O)CN1C[C@H]2CCCC[C@H]2C[C@H]1C(=O)NC(C)(C)C.O` [Nelfinavir mesylae hydrate], the “Cytotox Efficacy” value [1] was −98.05%, the “Cytotox Max Resp” value [1] was −95.64% and the “Cytotox CC-v2” value [1] was −1.1. The “% pathology CC-v2 (dose response Curve Class)” value [2] was −1.1.

In the case of `CCN(CC)CCC(=O)N1N=C(c2c(-c3ccccc3)c3cc(Br)ccc3[nH]c2=O)CC1c1ccc(Br)cc1` (stereo not shown) [CCT020312], the “effect on delta-E Torsin1a localization” value ([2]; delta-E cell line) was “dose-dependent reduction in the number of cells with Torsin1a inclusions”.

`CC(C)CN(C[C@@H](O)[C@H](Cc1ccccc1)NC(=O)O[C@H]1CO[C@H]2OCC[C@H]21)S(=O)(=O)c1ccc(N)cc1` [Darunavir] was tested, and the “C.Luc. Secretion Assay Secretion EC50” value (luciferase secretion) was “No Activity” and the “ΔE TorsinA Mislocalization Assay Localization EC50” value [2, 4] was “No Activity”.

With `CC(C)(C)NC(=O)[C@@H]1C[C@@H]2CCCC[C@@H]2CN1C[C@@H](O)[C@H](Cc1ccccc1)NC(=O)[C@H](CC(N)=O)NC(=O)c1ccc2ccccc2n1` [Saquinavir] the “effect on secretory deficits, in words” value (luciferase secretion) was “corrected secretory deficits” and the “effect on delta-E Torsin1a localization” value ([2]; delta-E cell line) was “corrected TorsinA localization in a dose-dependent fashion”.

With `CCCC(CCC)C(=O)O` [valproic acid] the “effect on delta-E Torsin1a localization” value ([2]; delta-E cell line) was “no effect”.

With `CC(C)(C)NC(=O)[C@@H]1CN(Cc2cccnc2)CCN1C[C@@H](O)C[C@@H](Cc1ccccc1)C(=O)N[C@H]1c2ccccc2C[C@H]1O` [Indinavir] the “effect on delta-E Torsin1a localization” value ([2]; delta-E cell line) was “corrected TorsinA localization in a dose-dependent fashion”.

For `CC(C)c1nc(CN(C)C(=O)N[C@H](C(=O)N[C@@H](Cc2ccccc2)C[C@H](O)[C@H](Cc2ccccc2)NC(=O)OCc2cncs2)C(C)C)cs1` [Ritonavir], the “Cytotox CC-v2” value [1] was 4, the “effect on secretory deficits, in words” value (luciferase secretion) was “corrected secretory deficits” and the “effect on delta-E Torsin1a localization” value ([2]; delta-E cell line) was “corrected TorsinA localization in a dose-dependent fashion; also recorded: restored”.

For `COC(=O)N[C@H](C(=O)N[C@@H](Cc1ccccc1)[C@@H](O)CN(Cc1ccc(-c2ccccn2)cc1)NC(=O)[C@@H](NC(=O)OC)C(C)(C)C)C(C)(C)C` [Atazanavir], the “Cytotox CC-v2” value [1] was 4 and the “ΔE TorsinA Mislocalization Assay Localization EC50” value [2, 4] was “No Activity”.

`Cc1cccc(C)c1OCC(=O)NC(CCC(Cc1ccccc1)NC(=O)C(C(C)C)N1CCCNC1=O)Cc1ccccc1` (stereo not shown) [Des-hydroxy Lopinavir] was tested, and the “Cytotox Efficacy” value [1] was −77.66%, the “Cytotox Max Resp” value [1] was −66.67% and the “Cytotox CC-v2” value [1] was −2.2. The “% pathology CC-v2 (dose response Curve Class)” value [2] was −3.

`C[C@H](NC(=O)Cc1cc(F)cc(F)c1)C(=O)N[C@H](C(=O)OC(C)(C)C)c1ccccc1` [DAPT] was tested, and the “effect on delta-E Torsin1a localization” value ([2]; delta-E cell line) was “no effect”.
